Laboratory results published in patent US20260022097A1 (priority 2022, published 2026).
Where two headings read alike, the source gives them in different places.

Key:
[1] = target: T1, delta-opioid receptor (DOR) (Homo sapiens, UniProt P41143); assay: inhibition of forskolin-induced cAMP accumulation assay, DOR antagonist mode versus SNC80; format: cell-based; conditions: for IC50: read-out: DOR Antagonist IC50+/-SEM
[2] = target: kappa-opioid receptor (KOR) (Homo sapiens, UniProt P41145); assay: inhibition of forskolin-induced cAMP accumulation assay, KOR antagonist mode versus U50488H; format: cell-based; conditions: for IC50: read-out: KOR Antagonist IC50+/-SEM
mu-opioid receptor (MOR) = mu-opioid receptor (MOR) (Homo sapiens, UniProt P35372); assay: cell-based; format: cell-based; conditions: for Emax: read-out: MOR Agonist % Emax+/-SEM; for EC50: read-out: MOR Agonist EC50+/-SEM
squirrel monkeys [3] = assay: ventilatory ratio / respiratory effects in squirrel monkeys; format: in vivo
MOR [4] = target: T2, MOR (Homo sapiens, UniProt P35372); assay: binding affinity at MOR
MOR [5] = target: T2, MOR; assay: GTP assay (G-protein activation) at MOR; format: biochemical
squirrel monkeys [6] = assay: antinociceptive effects in vivo in squirrel monkeys
[7] = target: T1, delta-opioid receptor (DOR); assay: inhibition of forskolin-induced cAMP accumulation assay, DOR agonist mode; format: cell-based; conditions: for Emax: read-out: DOR Agonist % Emax+/-SEM (converted); for EC50: read-out: DOR Agonist EC50+/-SEM

T1 sequence (P41143 whole entry): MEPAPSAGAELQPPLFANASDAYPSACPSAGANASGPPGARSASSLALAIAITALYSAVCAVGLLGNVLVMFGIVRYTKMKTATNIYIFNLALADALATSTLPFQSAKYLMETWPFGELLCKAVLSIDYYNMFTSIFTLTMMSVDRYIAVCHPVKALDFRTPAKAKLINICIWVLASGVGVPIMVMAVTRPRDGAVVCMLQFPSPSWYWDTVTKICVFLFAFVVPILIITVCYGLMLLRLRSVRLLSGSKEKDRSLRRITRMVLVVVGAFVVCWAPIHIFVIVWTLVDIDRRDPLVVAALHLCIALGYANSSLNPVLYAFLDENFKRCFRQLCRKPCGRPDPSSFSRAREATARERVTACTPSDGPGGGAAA
Chain of kappa-opioid receptor (KOR) (P41145 whole entry): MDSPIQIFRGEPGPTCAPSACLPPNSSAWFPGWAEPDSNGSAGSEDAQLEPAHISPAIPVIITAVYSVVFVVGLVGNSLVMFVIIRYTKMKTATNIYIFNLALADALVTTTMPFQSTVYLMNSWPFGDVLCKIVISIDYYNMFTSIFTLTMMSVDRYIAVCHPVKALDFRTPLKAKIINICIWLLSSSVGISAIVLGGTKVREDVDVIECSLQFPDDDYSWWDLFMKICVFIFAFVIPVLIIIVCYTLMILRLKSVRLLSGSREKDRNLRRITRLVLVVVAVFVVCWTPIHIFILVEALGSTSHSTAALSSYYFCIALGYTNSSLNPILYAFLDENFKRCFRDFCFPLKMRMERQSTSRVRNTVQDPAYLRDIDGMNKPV
T2 sequence (P35372 whole entry): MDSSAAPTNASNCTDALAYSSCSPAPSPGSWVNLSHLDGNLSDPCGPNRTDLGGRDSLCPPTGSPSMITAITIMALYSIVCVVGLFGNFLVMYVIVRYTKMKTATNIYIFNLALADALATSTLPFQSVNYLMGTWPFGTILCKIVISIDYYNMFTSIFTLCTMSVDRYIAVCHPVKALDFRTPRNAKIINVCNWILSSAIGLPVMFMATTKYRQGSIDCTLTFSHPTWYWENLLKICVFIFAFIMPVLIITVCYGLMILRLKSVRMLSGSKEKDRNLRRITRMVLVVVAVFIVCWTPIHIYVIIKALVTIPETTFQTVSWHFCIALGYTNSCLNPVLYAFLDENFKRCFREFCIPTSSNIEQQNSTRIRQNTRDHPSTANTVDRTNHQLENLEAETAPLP
Chain of mu-opioid receptor (MOR) (P35372 whole entry): as above

CCC=C[C@@H]1[C@H]2CCC[C@]1(c1cccc(O)c1)CCN2CCc1ccccc1 (stereo in doubt) [Compound 30, 3-((1R,5S,9S)-9-((E)-but-1-en-1-yl)-2-phenethyl-2-azabicyclo[3.3.1]nonan-5-yl) phenol]
DOR Antagonist % Imax+/-SEM ([1]; normalized to naltrexone): 182.3 ± 56.4%
IC50 ([1]; versus EC50 of SNC80): 3220 ± 572 nM
KOR Antagonist % Imax+/-SEM ([2]; normalized to nor-BNI): 103.8 ± 9.2%
IC50 ([2]; versus EC90 of U50488H): 283 ± 46.4 nM
Emax (mu-opioid receptor (MOR)): 89.8%
EC50 (mu-opioid receptor (MOR)): 14.8 nM

C=C[C@H]1[C@@H]2CCC[C@@]1(c1cccc(O)c1)CCN2CCc1ccccc1 [Compound 19, 3-((1S,5R,9R)-2-Phenethyl-9-vinyl-2-azabicyclo[3.3.1]nonan-5-yl) phenol]
DOR Antagonist % Imax+/-SEM [1]: 143.65 ± 41.03 (201.4 ± 35.9%)
DOR antagonist (result in words) [1]: weak DOR and KOR antagonist
IC50 [1]: 144 nM
KOR Antagonist % Imax+/-SEM [2]: 28.39 ± 4.24 (104.9 ± 11.2%)
KOR antagonist (result in words) [2]: weak DOR and KOR antagonist
IC50 [2]: 28.4 nM

C=C[C@H]1[C@H]2CCC[C@]1(c1cccc(O)c1)CCN2CCc1ccccc1 [Compound 13, 3-((1R,5S,9R)-2-Phenethyl-9-vinyl-2-azabicyclo[3.3.1]nonan-5-yl) phenol]
effect on ventilatory ratio (squirrel monkeys [3]): decreased ventilatory ratio
Ki (MOR [4]): 0.5 nM
Emax (MOR [5]): 20.1%
DOR Antagonist % Imax+/-SEM ([1]; normalized to naltrexone): 119.1 ± 15.5%
IC50 ([1]; versus EC50 of SNC80): 113 ± 43.6 nM
KOR Antagonist % Imax+/-SEM ([2]; normalized to nor-BNI): 97.1 ± 9.2%
IC50 ([2]; versus EC90 of U50488H): 74 ± 30.5 nM
antinociceptive effects (squirrel monkeys [6]): had antinociceptive effects in vivo
MOR Agonist % Emax+/-SEM (mu-opioid receptor (MOR)): 1.44 ± 0.48 (94.7 ± 3.1%)
EC50 (mu-opioid receptor (MOR)): 1.44 nM

C=C[C@@H]1[C@H]2CCC[C@]1(c1cccc(O)c1)CCN2CCc1ccccc1 [Compound 14, 3-((1R,5S,9S)-2-Phenethyl-9-vinyl-2-azabicyclo[3.3.1]nonan-5-yl) phenol]
effect on ventilatory ratio (squirrel monkeys [3]): without selective effects on ventilatory ratio
respiratory effects compared with morphine (squirrel monkeys [3]): lessor respiratory effects
Emax (MOR [5]): 10.5%
KOR Antagonist % Imax+/-SEM ([2]; normalized to nor-BNI): 101.8 ± 19.1%
IC50 ([2]; versus EC90 of U50488H): 19.8 ± 9.71 nM
Emax [7]: 22.6%
EC50 [7]: 57 ± 21.4 nM
antinociceptive effects (squirrel monkeys [6]): antinociceptive effects in some, but not all animals
Emax (mu-opioid receptor (MOR)): 67.3%
EC50 (mu-opioid receptor (MOR)): 2.12 nM

CCC=C[C@@H]1[C@@H]2CCC[C@@]1(c1cccc(O)c1)CCN2CCc1ccccc1 (stereo in doubt) [Compound 33, 3-((1S,5R,9S)-9-((E)-but-1-en-1-yl)-2-phenethyl-2-azabicyclo[3.3.1]nonan-5-yl) phenol]
DOR Antagonist % Imax+/-SEM ([1]; normalized to naltrexone): 226.1 ± 14.0%
IC50 ([1]; versus EC50 of SNC80): 520 ± 144 nM
KOR Antagonist % Imax+/-SEM ([2]; normalized to nor-BNI): 96.2 ± 0.9%
IC50 ([2]; versus EC90 of U50488H): 12.2 ± 2.49 nM

CC=C[C@H]1[C@H]2CCC[C@]1(c1cccc(O)c1)CCN2CCc1ccccc1 (stereo in doubt) [Compound 22, 3-((1R,5S,9R)-2-phenethyl-9-((E)-prop-1-en-1-yl)-2-azabicyclo[3.3.1]nonan-5-yl) phenol]
effect on ventilatory ratio (squirrel monkeys [3]): slightly lessor effects on ventilatory ratio
respiratory effects compared with morphine (squirrel monkeys [3]): lessor respiratory effects
Emax (MOR [5]): 18%
DOR Antagonist % Imax+/-SEM ([1]; normalized to naltrexone): 143.3 ± 11.9%
IC50 ([1]; versus EC50 of SNC80): 113 ± 19.8 nM
KOR Antagonist % Imax+/-SEM ([2]; normalized to nor-BNI): 111.6 ± 7.9%
IC50 ([2]; versus EC90 of U50488H): 35 ± 9.72 nM
antinociceptive effects (squirrel monkeys [6]): had antinociceptive effects
MOR Agonist % Emax+/-SEM (mu-opioid receptor (MOR)): 2.61 ± 0.64 (89.5 ± 2.9%)
EC50 (mu-opioid receptor (MOR)): 2.61 nM

CCC=C[C@H]1[C@@H]2CCC[C@@]1(c1cccc(O)c1)CCN2CCc1ccccc1 (stereo in doubt) [Compound 34, 3-((1S,5R,9R)-9-((E)-but-1-en-1-yl)-2-phenethyl-2-azabicyclo[3.3.1]nonan-5-yl) phenol]
DOR antagonist (result in words) [1]: potent DOR antagonist
DOR Antagonist % Imax+/-SEM ([1]; normalized to naltrexone): 211.5 ± 24.7%
IC50 ([1]; versus EC50 of SNC80): 8.22 ± 2.44 nM
KOR antagonist (result in words) [2]: moderately potent KOR antagonist
KOR Antagonist % Imax+/-SEM ([2]; normalized to nor-BNI): 98.2 ± 2.3%
IC50 ([2]; versus EC90 of U50488H): 0.79 ± 0.28 nM

CC=C[C@@H]1[C@H]2CCC[C@]1(c1cccc(O)c1)CCN2CCc1ccccc1 (stereo in doubt) [Compound 23, 3-((1R,5S,9S)-2-Phenethyl-9-((E)-prop-1-en-1-yl)-2-azabicyclo[3.3.1]nonan-5-yl) phenol]
DOR Antagonist % Imax+/-SEM ([1]; normalized to naltrexone): 74.5 ± 2.3%
IC50 [1]: 9.69 ± 2.23 nM
KOR Antagonist % Imax+/-SEM ([2]; normalized to nor-BNI): 114.8 ± 11.2%
IC50 ([2]; versus EC90 of U50488H): 238 ± 52.6 nM
EC50 [7]: > 10000 nM
MOR potency relative to morphine (mu-opioid receptor (MOR)): 30 fold
Emax (mu-opioid receptor (MOR)): 101%
EC50 (mu-opioid receptor (MOR)): 0.07 nM

CCC=C[C@H]1[C@H]2CCC[C@]1(c1cccc(O)c1)CCN2CCc1ccccc1 (stereo in doubt) [Compound 29, 3-((1R,5S,9R)-9-((E)-but-1-en-1-yl)-2-phenethyl-2-azabicyclo[3.3.1]nonan-5-yl) phenol]
DOR Antagonist % Imax+/-SEM ([1]; normalized to naltrexone): 166.6 ± 40.0%
IC50 ([1]; versus EC50 of SNC80): 69 ± 4.83 nM
KOR Antagonist % Imax+/-SEM ([2]; normalized to nor-BNI): 109.5 ± 8.3%
IC50 ([2]; versus EC90 of U50488H): 328 ± 96.9 nM
Emax (mu-opioid receptor (MOR)): 95.8%
EC50 (mu-opioid receptor (MOR)): 11.6 nM

CC=C[C@@H]1C2CCC[C@@]1(c1cccc(O)c1)CCN2CCc1ccccc1 (stereo in doubt) [Compound 27, 3-((1R,5R,9S)-2-Phenethyl-9-((E)-prop-1-en-1-yl)-2-azabicyclo[3.3.1]nonan-5-yl) phenol]
KOR Antagonist % Imax+/-SEM ([2]; normalized to nor-BNI): 111.8 ± 2.2%
IC50 ([2]; versus EC90 of U50488H): 163 ± 37 nM
Emax [7]: 66.7%
EC50 [7]: 60.5 ± 3.74 nM
Emax (mu-opioid receptor (MOR)): 57.5%
EC50 (mu-opioid receptor (MOR)): 4.66 nM

C=C[C@@H]1[C@@H]2CCC[C@@]1(c1cccc(O)c1)CCN2CCc1ccccc1 [Compound 18, 3-((1S,5R,9S)-2-Phenethyl-9-vinyl-2-azabicyclo[3.3.1]nonan-5-yl) phenol]
KOR Antagonist % Imax+/-SEM ([2]; normalized to nor-BNI): 105.6 ± 4.6%
IC50 ([2]; versus EC90 of U50488H): 128 ± 48.2 nM
Emax [7]: 40.6%
EC50 [7]: 122 ± 47.1 nM
Emax (mu-opioid receptor (MOR)): 46.6%
EC50 (mu-opioid receptor (MOR)): 3.94 nM

CC=C[C@H]1C2CCC[C@@]1(c1cccc(O)c1)CCN2CCc1ccccc1 (stereo in doubt) [Compound 26, 3-((1R,5R,9R)-2-Phenethyl-9-((E)-prop-1-en-1-yl)-2-azabicyclo[3.3.1]nonan-5-yl) phenol]
DOR Antagonist % Imax+/-SEM ([1]; normalized to naltrexone): 142.5 ± 23.7%
IC50 ([1]; versus EC50 of SNC80): 7.52 ± 2.93 nM
KOR antagonist (result in words) [2]: moderately potent KOR antagonist
KOR Antagonist % Imax+/-SEM ([2]; normalized to nor-BNI): 126.7 ± 2.6%
IC50 ([2]; versus EC90 of U50488H): 4.02 ± 0.25 nM
